Source: US9399623B2, “Quinoline derivatives and their use in neurodegenerative diseases” (Merck Patent GmbH, priority 2014, dated 2016)
pIC50: −log10 of the molar value.

Key:
P2X7 [1] = target: T1, P2X7 (Homo sapiens, UniProt Q99572); experiment: Pore permeation assay (YO PRO dye uptake, BzATP-induced); format: cell-based; parameters: expressed in transfected cells; host or cells: HEK293; conditions: HEK293 transfected with human P2X7 receptor; YO PRO dye 1 uM, BzATP 10 uM; read-out: hP2X7 IC50
T1 sequence (Q99572 1-595): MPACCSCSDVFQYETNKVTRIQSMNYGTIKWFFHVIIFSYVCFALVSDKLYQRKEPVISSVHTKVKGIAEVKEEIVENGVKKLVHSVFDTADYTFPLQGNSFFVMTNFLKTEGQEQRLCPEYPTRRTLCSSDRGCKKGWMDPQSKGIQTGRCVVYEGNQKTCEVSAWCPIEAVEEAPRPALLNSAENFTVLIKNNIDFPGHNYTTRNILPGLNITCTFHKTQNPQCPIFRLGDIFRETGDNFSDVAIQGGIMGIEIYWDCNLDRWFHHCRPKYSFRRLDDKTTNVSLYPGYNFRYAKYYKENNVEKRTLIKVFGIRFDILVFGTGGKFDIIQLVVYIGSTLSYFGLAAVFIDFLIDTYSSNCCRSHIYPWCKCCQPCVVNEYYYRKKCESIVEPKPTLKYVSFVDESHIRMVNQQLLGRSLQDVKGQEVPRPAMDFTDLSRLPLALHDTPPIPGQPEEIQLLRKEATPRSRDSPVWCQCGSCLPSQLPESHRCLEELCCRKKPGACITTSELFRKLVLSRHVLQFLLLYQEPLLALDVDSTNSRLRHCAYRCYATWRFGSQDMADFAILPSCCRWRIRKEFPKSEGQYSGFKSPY
Method: Agonist-induced pore formation was determined by measuring cellular uptake of YO PRO fluorescence dye in HEK293 transfected with human P2X7 receptor. A HEK293 cell over expressing human P2X7 was harvested using HQTase reagent to detach the cells from T75 cm flask. The harvested cells are centrifuged @ 1200 rpm for 5 min at room temperature. The viability of cells was determined by Trypan blue dye and the cells are plated @ 10,000 cell/well in 50 ul volume in a 384 W BD Poly lysine coated plate and incubated overnight at 37 C. After overnight incubation, the culture medium was replaced with 35 ul/well assay buffer (5 mM KCl, 0.1 mM CaCl2, 5 mM Glucose, 10 mM HEPES buffer pH7.4 containing 125 mM NaCl. The serial dilution of compounds was performed using Bravo liquid handling instrument and the compounds were added using Bravo to the cell assay plate starting at 2.5 uM with three dilutions for 10 points. The positive control inhibitor compound was added to column 23. The plate was shaken slowly on a plate shaker for 10 seconds. The cells were incubated with the compound for 20 minutes at room temperature. After the incubation period, YO PRO dye (1 uM) along with BzATP (10 uM) were added to cells at 10 ul/well. The plate was centrifuged at 1000 rpm for 5 seconds and incubated at room temperature for 30 minutes. The uptake of YO PRO dye into the cells was measured using Envision Fluorescence plate reader instrument (Perkin Elmer).

P2X7 [2] = target: T1, P2X7; experiment: IL-1β release assay in THP-1 cells (sandwich ELISA); format: cell-based; parameters: release of mature IL-1β in the culture medium of THP-1 cells; endogenous in cells; host or cells: THP-1 cells (PMA-differentiated, LPS-primed); conditions: PMA, LPS primed, stimulated with 0.8 mM BzATP, mature IL-1β release, read-out: hTHP-1/IL-ib IC50
Method: The activation of P2X7 by ATP leads to a fast transient activation of cells resulting in influx of Ca^2+ followed by conversion of pro-IL-1β to active IL-1β. The functional activity of P2X7 compounds was measured by the release of mature IL-1β in the culture medium of THP-1 cells, detected by sandwich ELISA. Cells were maintained in complete growth medium (RPMI 1640+10% HI-FCS+2 mM L-glutamine+1×PS). […] THP-1 cells were harvested from the flask in 50 ml by centrifugation for 3 min at 100 g. The cells were resuspended to 2×10^5 cells/ml in medium supplemented with 0.5 μM PMA and incubated. The cells were washed and resuspended to 1.5×10^5 cells/ml in medium complemented with 10 ng/ml LPS, and the cells were primed for 4 h at 37° C., 5% CO2. After addition of 20 μL of prediluted test compounds, blank, standard and control reagents, cells were incubated for a further 20 min at 37° C. and stimulated with 0.8 mM BzATP for 30 minutes. The cells were centrifuged, supernatant was collected and the presence of mature IL-1β was detected using Dual human IL-1b kit following manufacturer's instruction. The tetrahydrobenzodiazepine analogs effectively modulated the activity of P2X7 in the cells as measured by the levels of pro-inflammatory cytokine IL-1β, which is released by the activation of P2X7 receptor.

Row | pIC50 (P2X7 [1]) | pIC50 (P2X7 [2]) | Structure (SMILES)
1 | 7.00 to 8.00 | 6.30 to 7.00 | O=C(NCC1CCC(F)(F)CC1)c1c(Cl)ccc2nc(C3CCCCC3)ccc12 [Compound 48, 6-Chloro-2-cyclohexyl-quinoline-5-carboxylic acid (4,4-difluoro-cyclohexylmethyl)-amide]
2 | > 8.00 | 7.00 to 8.00 | O=C(NCC1CCC(F)(F)CC1)c1c(Cl)ccc2nc(C#CCO)ccc12 [Compound 19, 6-Chloro-2-(3-hydroxy-prop-1-ynyl)-quinoline-5-carboxylic acid (4,4-difluoro-cyclo hexylmethyl)-amide]
3 | > 8.00 | 6.30 to 7.00 | O=C(NCC1CCC(F)(F)CC1)c1c(Cl)ccc2nc(N3CC[C@@H](CO)C3)ccc12 [Compound 12, 6-Chloro-2-((R)-3-hydroxymethyl-pyrrolidin-1-yl)-quinoline-5-carboxylic acid (4,4-difluoro-cyclohexylmethyl)-amide]
4 | > 8.00 | 7.00 to 8.00 | C[C@@H]1CCC[C@](O)(CNC(=O)c2c(Cl)ccc3nc(N4CC[C@@H](F)C4)ccc23)C1 [Compound 8, 6-Chloro-2-(3-(R)-fluoropyrrolidin-1-yl)-quinoline-5-carboxylic acid ((1R,3R)-1-hydroxy-3-methyl-cyclohexylmethyl)-amide]
5 | > 8.00 | > 8.00 | C[C@@H]1CCC[C@](O)(CNC(=O)c2c(Cl)ccc3nc(N4CCC(N5CCCC5)C4)ccc23)C1 (stereo partly drawn) [Compound 13, 6-Chloro-2-(3-pyrrolidinyl-pyrrolidin-1-yl)-quinoline-5-carboxylic acid ((1R,3R)-1-hydroxy-3-methyl-cyclohexylmethyl)-amide]
6 | 7.00 to 8.00 | 6.30 to 7.00 | O=C(NCC1CCC(F)(F)CC1)c1c(Cl)ccc2nc(C3=CCOCC3)ccc12 [Compound 31, 6-Chloro-2-(3,6-dihydro-2H-pyran-4-yl)-quinoline-5-carboxylic acid (4,4-difluoro-cyclo hexyl methyl)-amide]
7 | 7.00 to 8.00 | 7.00 to 8.00 | O=C(NCC1CCC(F)(F)CC1)c1c(Cl)ccc2nc(N3CCC(N4CCCC4)C3)ccc12 (stereo not shown) [Compound 30, 6-Chloro-2-(3-pyrrolidinyl-pyrrolidin-1-yl)-quinoline-5-carboxylic acid (4,4-difluoro-cyclohexylmethyl)-amide]
8 | 7.00 to 8.00 | 7.00 to 8.00 | O=C(NCC1CCC(F)(F)CC1)c1c(Cl)ccc2nc(N3CC[C@H](F)C3)ccc12 [Compound 41, 6-Chloro-2-((S)-3-fluoropyrrolidin-1-yl)-quinoline-5-carboxylic acid (4,4-difluoro-cyclohexylmethyl)-amide]
9 | 7.00 to 8.00 | 7.00 to 8.00 | CN(C)[C@H]1CCN(c2ccc3c(C(=O)NCC4(O)CCC(F)(F)CC4)c(Cl)ccc3n2)C1 [Compound 20, 6-Chloro-2-((S)-3-dimethylamino-pyrrolidin-1-yl)-quinoline-5-carboxylic acid (4,4-difluoro-1-hydroxy-cyclohexylmethyl)-amide]
10 | 7.00 to 8.00 | 7.00 to 8.00 | O=C(NCC1CCC(F)(F)CC1)c1c(Cl)ccc2nc(N3CCC(NCCO)C3)ccc12 (stereo not shown) [Compound 21]
11 | 7.00 to 8.00 | 7.00 to 8.00 | O=C(NCC1CCC(F)(F)CC1)c1c(Cl)ccc2nc(NCCO)ccc12 [Compound 66, 6-Chloro-2-(2-hydroxy-ethylamino)-quinoline-5-carboxylic acid (4,4-difluoro-cyclohexyl methyl)-amide]
12 | > 8.00 | 7.00 to 8.00 | C[C@@H]1CCC[C@](O)(CNC(=O)c2c(Cl)ccc3nc(N4CCC(N(C)C)C4)ccc23)C1 (stereo partly drawn) [Compound 6, 6-Chloro-2-(3-dimethylamino-pyrrolidin-1-yl)-quinoline-5-carboxylic acid ((1R,3R)-1-hydroxy-3-methyl-cyclohexylmethyl)-amide]
13 | 7.00 to 8.00 | 6.30 to 7.00 | O=C(NCC1CCCC(F)(F)C1)c1c(Cl)ccc2nc(N3CCC(CCO)C3)ccc12 (stereo not shown) [Compound 63, 6-Chloro-2-(3-hydroxyethyl-pyrrolidin-1-yl)-quinoline-5-carboxylic acid (3,3-difluoro-cyclohexylmethyl)-amide]
14 | 7.00 to 8.00 | 7.00 to 8.00 | CN(C)c1ccc2c(C(=O)NCC3CCC(F)(F)CC3)c(Cl)ccc2n1 [Compound 44]
15 | 7.00 to 8.00 | 7.00 to 8.00 | CN(C)C1CCN(c2ccc3c(C(=O)NCC4(O)CCC(F)(F)CC4)c(Cl)ccc3n2)C1 (stereo not shown) [Compound 28, 6-Chloro-2-(3-dimethylamino-pyrrolidin-1-yl)-quinoline-5-carboxylic acid (4,4-difluoro-1-hydroxy-cyclohexylmethyl)-amide]
16 | > 8.00 | 7.00 to 8.00 | C[C@@H]1CCC[C@](O)(CNC(=O)c2c(Cl)ccc3nc(N4CCC(F)C4)ccc23)C1 (stereo partly drawn) [Compound 5, 6-Chloro-2-(3-fluoropyrrolidin-1-yl)-quinoline-5-carboxylic acid ((1R,3R)-1-hydroxy-3-methyl-cyclohexylmethyl)-amide]
17 | 7.00 to 8.00 | 6.30 to 7.00 | O=C(NCC1CCC(F)(F)CC1)c1c(Cl)ccc2nc(NCCCO)ccc12 [Compound 60, 6-Chloro-2-(3-hydroxy-propylamino)-quinoline-5-carboxylic acid (4,4-difluoro-cyclo hexyl methyl)-amide]
18 | 7.00 to 8.00 | 7.00 to 8.00 | O=C(NC[C@@]1(O)CCCC(F)(F)C1)c1c(Cl)ccc2nc(N3CCC(F)(F)C3)ccc12 [Compound 24, 6-Chloro-2-(3,3-difluoropyrrolidin-1-yl)-quinoline-5-carboxylic acid ((R)-3,3-difluoro-1-hydroxycyclohexylmethyl)-amide]
19 | > 8.00 | 7.00 to 8.00 | C[C@@H]1CCC[C@](O)(CNC(=O)c2c(Cl)ccc3nc(N4CCC(F)(F)C4)ccc23)C1 [Compound 10, 6-Chloro-2-(3,3-difluoropyrrolidin-1-yl)-quinoline-5-carboxylic acid ((1R,3R)-1-hydroxy-3-methyl-cyclohexylmethyl)-amide]
20 | 7.00 to 8.00 | 7.00 to 8.00 | O=C(NCC1(O)CCCCCC1)c1c(Cl)ccc2nc(N3CCCC3)ccc12 [Compound 25]
21 | 7.00 to 8.00 | 6.30 to 7.00 | O=C(NCC1CCC(F)(F)CC1)c1c(Cl)ccc2nc(N3CC[C@@H](O)C3)ccc12 [Compound 61]
22 | 7.00 to 8.00 | 7.00 to 8.00 | O=C(NCC1CCCC(F)(F)C1)c1c(Cl)ccc2nc(N3CCC(CO)C3)ccc12 (stereo not shown) [Compound 35, 6-Chloro-2-(3-hydroxymethylpyrrolidin-1-yl)-quinoline-5-carboxylic acid (3,3-difluoro-cyclohexylmethyl)-amide]
23 | 7.00 to 8.00 | 7.00 to 8.00 | O=C(NCC1(O)CCCC(F)(F)C1)c1c(Cl)ccc2nc(N3CCC(F)(F)C3)ccc12 (stereo not shown) [Compound 46, 6-Chloro-2-(3,3-difluoropyrrolidin-1-yl)-quinoline-5-carboxylic acid (3,3-difluoro-1-hydroxycyclohexylmethyl)-amide]
